Common to all, as to settings: mouse, in vivo
One data set deals with iNOS. Details: species or system mice.
Data set [1] concerns skin exposed to nitrogen mustard (NM). Details: species or system C57Bl/6 mice.
The next data set has as its system NM-challenged skin. Details: species or system mice.
For data set [2], the system named is mice challenged with topical nitrogen mustard (NM).

For `C=C1CC[C@H](O)C/C1=C/C=C1\CCC[C@]2(C)[C@@H]([C@H](C)CCCC(C)(C)O)CC[C@@H]12` [25(OH)D, 25-hydroxyvitamin D3], the “iNOS levels (relative iNOS gene expression)” value with iNOS is reported as “responded”.
Regarding `CC(=O)S[C@@H]1CC2=CC(=O)CC[C@]2(C)[C@H]2CC[C@@]3(C)[C@@H](CC[C@@]34CCC(=O)O4)[C@H]12` [spironolactone], the “skin thickness by bi-fold caliper measurements” value in data set [1] is “showed efficacy in reducing skin thickness”. Besides, in the data set with NM-challenged skin, the “inflammatory cells in skin” value is “significant reduction” and the skin thickness entry was “decrease in thickness”. Further, in data set [2], the “lesion area at day 5” value is “reduce lesion area”, the lesion size result is “dose dependent reduction” and the systemic toxicity entry is “sustained systemic toxicity”.
